Test results from the OligoGym collection.
Where “and” joins values, the source holds several entries; their conditions need not be identical. Identical values can stand only once. After the bases stand the sugars from the 5' end (letter, count) and the backbone: PS all phosphorothioate, else s phosphorothioate and o phosphodiester by linkage. Methylation of C is not given here. e = 2'-O-(2-methoxyethyl) (MOE); k = constrained ethyl (cEt); d = 2'-deoxy (DNA)

What follows are sequences tested against MALAT1. Conditions: ASO, A431, 0.005 µM.

Point of comparison: TTGCCCGCTTTCCCCC (sugars k3 d10 k3, PS), target mRNA inhibition 19%. Against it:
- TCCTTCGGATGCTTCA (sugars k3 d10 k3, PS) — higher, 56%
- TCGATGGAAAAATTTC (sugars k3 d10 k3, PS) — higher, 30%
- TCGCAGACAAAGTTTC (sugars k3 d10 k3, PS) — higher, 31%
- TCGCATCACCGGAATT (sugars k3 d10 k3, PS) — lower, 4%
- TCGCCTTCAAATTATT (sugars k3 d10 k3, PS) — higher, 35%
- TCGGATGCTTCACTCC (sugars k3 d10 k3, PS) — higher, 37%
- TCTAAAAGCATTGCCC (sugars k3 d10 k3, PS) — higher, 29%
- TCTAACAGCACATCAT (sugars k3 d10 k3, PS) — higher, 22%
- TCTAAGATTGTAAGCA (sugars k3 d10 k3, PS) — higher, 53%
- TCTAATAGCAGCGGGA (sugars k3 d10 k3, PS) — lower, 16%
- TCTACAAGTTACATGT (sugars k3 d10 k3, PS) — higher, 23%
- TCTCAATTTGGCTATC (sugars k3 d10 k3, PS) — higher, 29%
- TCTCATACACTCACTA (sugars k3 d10 k3, PS) — lower, 11%
- TCTCCAATGGACATCT (sugars k3 d10 k3, PS) — lower, 8%
- TCTCCGAAGACACAGA (sugars k3 d10 k3, PS) — lower, 0%
- TCTGATCTGCGGCCCC (sugars k3 d10 k3, PS) — lower, -18%
- TCTGCGGTTTCCTCAA (sugars k3 d10 k3, PS) — higher, 49%
- TCTTAACAGCTTATGG (sugars k3 d10 k3, PS) — higher, 31%
- TCTTAACTCAAAGTCC (sugars k3 d10 k3, PS) — higher, 39%
- TCTTAATCAGTTACAA (sugars k3 d10 k3, PS) — lower, 9%
- TCTTACTTGATAATAC (sugars k3 d10 k3, PS) — lower, 10%
- TGAAAACCCACTCTTG (sugars k3 d10 k3, PS) — lower, 0%
- TGAAAACTCCCCCCCG (sugars k3 d10 k3, PS) — higher, 21%
- TGAACTATCACAATTC (sugars k3 d10 k3, PS) — higher, 24%
- TGAAGCATACCTTAAC (sugars k3 d10 k3, PS) — higher, 31%
- TGAAGTCAAGACAACT (sugars k3 d10 k3, PS) — lower, 1%
- TGACAAGCAATTAACT (sugars k3 d10 k3, PS) — higher, 28%
- TGACTGAATATGAACC (sugars k3 d10 k3, PS) — higher, 41%
- TGAGGGACAGTAGGTA (sugars k3 d10 k3, PS) — lower, 18%
- TGAGTATGCTGATAAA (sugars k3 d10 k3, PS) — higher, 41%
- TGAGTGGTTTTATCTA (sugars k3 d10 k3, PS) — lower, 7%
- TGATCTGACTTTGTAT (sugars k3 d10 k3, PS) — higher, 47%
- TGCAAGTTAAACTTAT (sugars k3 d10 k3, PS) — higher, 25%
- TGCAGGCAAATTAATG (sugars k3 d10 k3, PS) — lower, 11%
- TGCCAACTAATTGCCA (sugars k3 d10 k3, PS) — higher, 23%
- TGCCAACTTGGAAGTT (sugars k3 d10 k3, PS) — higher, 32%
- TGCCACAGGAAGGCTC (sugars k3 d10 k3, PS) — lower, -10%
- TGCCTTAAAGTTACAT (sugars k3 d10 k3, PS) — the same, 19%
- TGCGCTTAAGAGGGCA (sugars k3 d10 k3, PS) — lower, 7%
- TGCTCGCCTCCTCCGT (sugars k3 d10 k3, PS) — higher, 34%
- TGCTTACACACAACTG (sugars k3 d10 k3, PS) — higher, 35%
- TGGAACTTGAATGCAA (sugars k3 d10 k3, PS) — lower, 10%
- TGGCCCTTCGCATACG (sugars k3 d10 k3, PS) — higher, 28%
- TGGCGGACTTTCTCCC (sugars k3 d10 k3, PS) — lower, 9%
- TGGTCTAGGATCCTCT (sugars k3 d10 k3, PS) — lower, -15%
- TGTAAGAATTAAGACC (sugars k3 d10 k3, PS) — lower, 18%
- TGTATATAGTTCAAAG (sugars k3 d10 k3, PS) — lower, 9%
- TGTCTAAGAGGTTATT (sugars k3 d10 k3, PS) — lower, 10%
- TGTTAACAATTTGCAG (sugars k3 d10 k3, PS) — higher, 20%
- TGTTAAGACCATCCCA (sugars k3 d10 k3, PS) — lower, 9%
- TGTTAAGAGAAGCCCA (sugars k3 d10 k3, PS) — lower, 2%
- TGTTACACCTTGAGTC (sugars k3 d10 k3, PS) — higher, 37%
- TTAAACGGGTCATCAA (sugars k3 d10 k3, PS) — lower, 0%
- TTAACCAACTTCCCCT (sugars k3 d10 k3, PS) — higher, 43%
- TTAAGACCATCCCAAA (sugars k3 d10 k3, PS) — lower, 5%
- TTAATGCACTGGTACA (sugars k3 d10 k3, PS) — higher, 22%
- TTACACCTTGAGTCAT (sugars k3 d10 k3, PS) — higher, 21%
- TTACACTGCTCTGGGT (sugars k3 d10 k3, PS) — lower, 2%
- TTACAGAAGTCTCGGG (sugars k3 d10 k3, PS) — lower, 11%
- TTACATGTTCCCACCC (sugars k3 d10 k3, PS) — the same, 19%
- TTACCAACCACTCGCT (sugars k3 d10 k3, PS) — lower, 2%
- TTACCTTGAAACCGAT (sugars k3 d10 k3, PS) — higher, 31%
- TTACTGGTTTAAGTTG (sugars k3 d10 k3, PS) — higher, 24%
- TTATAATAGAGCTACT (sugars k3 d10 k3, PS) — lower, 4%
- TTATAGACGGAGAACA (sugars k3 d10 k3, PS) — lower, 8%
- TTATAGCTTGACAAGC (sugars k3 d10 k3, PS) — higher, 37%
- TTATCAATTCACCAAG (sugars k3 d10 k3, PS) — higher, 25%
- TTATCTGTTAACAGCT (sugars k3 d10 k3, PS) — higher, 31%
- TTATGGATCATGCCCA (sugars k3 d10 k3, PS) — higher, 28%
- TTATTCCCCAATGGAG (sugars k3 d10 k3, PS) — lower, 18%
- TTCATTACCCCAACTA (sugars k3 d10 k3, PS) — higher, 42%
- TTCCGCTCAAATCCTG (sugars k3 d10 k3, PS) — higher, 35%
- TTCGCCTTCCCGTACT (sugars k3 d10 k3, PS) — higher, 63%
- TTCTAGCTTCAAGTAT (sugars k3 d10 k3, PS) — higher, 25%
- TTCTGAACCGGAGCAG (sugars k3 d10 k3, PS) — higher, 23%
- TTCTGATAACGAAGAG (sugars k3 d10 k3, PS) — lower, 8%
- TTGAACCCCGTCCTGG (sugars k3 d10 k3, PS) — lower, 12%
- TTGAAGCATACCTTAA (sugars k3 d10 k3, PS) — higher, 28%
- TTGATCCCAACTCATC (sugars k3 d10 k3, PS) — higher, 33%
- TTGCCCCAACACTGAA (sugars k3 d10 k3, PS) — lower, 7%
- TTGCCGACCTCACGGA (sugars k3 d10 k3, PS) — higher, 30%
- TTGCTCGCTTGCTCCT (sugars k3 d10 k3, PS) — higher, 40%
- TTGGTTACCAATAATT (sugars k3 d10 k3, PS) — higher, 24%
- TTGTTCGAGAAATCGG (sugars k3 d10 k3, PS) — lower, 5%
- TTTAAAAAGGCTCGAT (sugars k3 d10 k3, PS) — higher, 28%
- TTTAAAAGATCGCCTT (sugars k3 d10 k3, PS) — higher, 50%
- TTTAAACGGGTCATCA (sugars k3 d10 k3, PS) — lower, 10%
- TTTAAGGTTGCATCTG (sugars k3 d10 k3, PS) — higher, 41%
- TTTACTTGCCAACAGA (sugars k3 d10 k3, PS) — higher, 27%
- TTTACTTTCCATTACG (sugars k3 d10 k3, PS) — lower, 16%
- TTTATAGACCCCTGAC (sugars k3 d10 k3, PS) — higher, 22%
- TTTCCCCAATCAAGAT (sugars k3 d10 k3, PS) — lower, -4%
- TTTGGCATATGCAGAT (sugars k3 d10 k3, PS) — higher, 24%
- TTTTACCAACCACTCG (sugars k3 d10 k3, PS) — higher, 31%
- TTTTAGTCACTGGATA (sugars k3 d10 k3, PS) — higher, 45%

TCTCAGGGTTATGCTT (sugars k3 d10 k3, PS) was tested, and the target mRNA inhibition was 59% and 81%.
In the case of TCTCATTTATTTCGGC (sugars k3 d10 k3, PS), the target mRNA inhibition is reported as 79% and 93%.
For TCTTGAATTACTTCCG (sugars k3 d10 k3, PS), the target mRNA inhibition was 76% and 55%.
TGGTTATAGCTTGACA (sugars k3 d10 k3, PS) was tested, and the target mRNA inhibition was 82% and 95%.
TTAAAGAGTGTTCGCA (sugars k3 d10 k3, PS) was tested, and the target mRNA inhibition was 59% and 39%.
With TTATGCTTATTCCCCA (sugars k3 d10 k3, PS) the target mRNA inhibition was 75% and 85%.
For TTCAACTGGAAGCTCC (sugars k3 d10 k3, PS), the target mRNA inhibition was 58% and 57%.
For TTGAGATGGACATTGC (sugars k3 d10 k3, PS), the target mRNA inhibition was 87% and 72%.
In the case of TTGTGGTTATAGCTTG (sugars k3 d10 k3, PS), the target mRNA inhibition is reported as 68% and 93%.

Each sequence was assayed against SOD1. Conditions: ASO, HepG2, 0.1875 µM.

For “AACAGATGAGTTAAGGG (sugars e2 k2 d8 k2 e3, PS)”, the target mRNA inhibition was 32%.

Same assay, conditions: ASO, HepG2, 0.75 µM

In the case of “AACAGATGAGTTAAGGG (sugars e2 k2 d8 k2 e3, PS)”, the target mRNA inhibition is reported as 55%.

Same assay, conditions: ASO, HepG2, 3 µM

Point of comparison: “AAATCTTCCAAGTGATC (sugars e3 k2 d7 k2 e3, PS)”, target mRNA inhibition 4%. Against it:
- AAATACAGGTCATTGAA (sugars e3 k2 d7 k2 e3, PS) — lower, 2%
- AACAGATGAGTTAAGGG (sugars e2 k2 d8 k2 e3, PS) — higher, 78%

Same assay, conditions: ASO, HepG2, 4 µM

Point of comparison: “AACCAGCACCCCGTCTCCGC (sugars e5 d10 e5, PS)”, target mRNA inhibition 11%. Against it:
- AACAGATGAGTTAAGGG (sugars e2 k2 d8 k2 e3, PS) — higher, 73%

Same assay, conditions: ASO, HepG2, 5 µM

With “AAATACAGGTCATTGAA (sugars e2 k2 d8 k2 e3, PS)” the target mRNA inhibition was 28%.

Same assay, conditions: ASO, HepG2, 12 µM

For “AACAGATGAGTTAAGGG (sugars e2 k2 d8 k2 e3, PS)”, the target mRNA inhibition was 93%.
